IC50 data for six compounds are collected here from ChEMBL document CHEMBL4138229, “Recent discovery of indoleamine-2,3-dioxygenase 1 inhibitors targeting cancer immunotherapy” (Eur J Med Chem, 2018).

As usually defined, the IC50 is the concentration needed to halve the response being measured.

SMILES strings stand for the structures.

The target of test [1] is T1, Indoleamine 2,3-dioxygenase 2 (Homo sapiens, UniProt Q6ZQW0).
T1 sequence (Q6ZQW0 whole entry): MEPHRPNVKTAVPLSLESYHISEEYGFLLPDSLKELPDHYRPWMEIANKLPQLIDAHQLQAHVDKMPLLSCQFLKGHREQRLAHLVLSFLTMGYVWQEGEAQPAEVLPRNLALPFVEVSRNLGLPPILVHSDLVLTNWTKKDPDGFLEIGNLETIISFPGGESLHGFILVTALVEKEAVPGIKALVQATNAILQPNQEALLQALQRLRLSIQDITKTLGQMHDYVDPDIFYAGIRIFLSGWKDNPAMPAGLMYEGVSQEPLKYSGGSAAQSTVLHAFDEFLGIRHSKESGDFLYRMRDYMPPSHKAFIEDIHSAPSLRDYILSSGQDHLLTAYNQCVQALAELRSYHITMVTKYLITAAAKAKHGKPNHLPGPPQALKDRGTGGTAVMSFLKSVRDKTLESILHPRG
The experiment in a line: Inhibition of human IDO2 using Trp as substrate after 90 mins by Bridge-IT tryptophan fluorescence assay.

In test [2] the target is T2, Tryptophan 2,3-dioxygenase (Homo sapiens, UniProt P48775). The test can be described thus: Inhibition of human TDO using Trp as substrate after 90 mins by Bridge-IT tryptophan fluorescence assay.
T2 sequence (P48775 whole entry): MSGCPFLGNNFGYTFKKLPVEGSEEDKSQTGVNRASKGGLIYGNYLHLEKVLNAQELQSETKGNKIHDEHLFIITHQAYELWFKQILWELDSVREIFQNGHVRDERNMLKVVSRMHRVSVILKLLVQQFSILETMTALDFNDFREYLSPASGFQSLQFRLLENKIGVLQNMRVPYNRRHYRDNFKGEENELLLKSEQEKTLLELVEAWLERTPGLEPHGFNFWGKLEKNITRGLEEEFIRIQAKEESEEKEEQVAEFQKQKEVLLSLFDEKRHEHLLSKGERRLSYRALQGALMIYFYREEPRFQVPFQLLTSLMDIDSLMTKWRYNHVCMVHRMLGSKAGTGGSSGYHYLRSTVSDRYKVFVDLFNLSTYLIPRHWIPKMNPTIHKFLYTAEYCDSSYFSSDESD
The target of test [3] is T3, Indoleamine 2,3-dioxygenase 1 (Homo sapiens, UniProt P14902). The test can be described thus: Inhibition of IDO1 in human HeLa assessed as reduction in kynurenine production. Format: cell-based.
T3 sequence (P14902 whole entry): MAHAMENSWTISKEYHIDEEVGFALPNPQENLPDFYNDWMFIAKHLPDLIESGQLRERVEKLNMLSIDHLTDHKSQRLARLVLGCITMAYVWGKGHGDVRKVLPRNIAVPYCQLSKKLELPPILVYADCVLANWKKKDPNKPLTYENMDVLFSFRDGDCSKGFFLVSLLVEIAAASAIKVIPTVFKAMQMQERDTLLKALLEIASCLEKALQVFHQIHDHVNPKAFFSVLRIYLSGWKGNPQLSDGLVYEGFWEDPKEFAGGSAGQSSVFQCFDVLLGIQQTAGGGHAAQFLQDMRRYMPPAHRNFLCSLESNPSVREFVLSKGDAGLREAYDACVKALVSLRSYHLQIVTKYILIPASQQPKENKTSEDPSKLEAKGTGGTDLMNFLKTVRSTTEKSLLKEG
Test [4] has as its target T3, Indoleamine 2,3-dioxygenase 1. The experiment in a line: Inhibition of human IDO1 assessed as reduction in kynurenine production.
The target is the same in test [5]. The experiment in a line: Inhibition of IDO1 (unknown origin) after 60 mins.
Test [6] shares this target. The experiment in a line: Inhibition of IDO1 in human HeLa cells assessed as reduction in kynurenine production. The test is classed as cell-based.
The target is the same in test [7]. The experiment in a line: Inhibition of IDO1 (unknown origin) assessed as reduction in kynurenine production by spectraphotometric assay.
Test [8] concerns the target T2, Tryptophan 2,3-dioxygenase. The experiment in a line: Inhibition of TDO (unknown origin).
Test [9] concerns the target T2, Tryptophan 2,3-dioxygenase. The test can be described thus: Inhibition of human TDO expressed in T-REx-293 cells. Format: cell-based.
In test [10] the target is Indoleamine 2,3-dioxygenase 1 (Mus musculus, UniProt P28776). The test can be described thus: Inhibition of IDO1 in mouse P815 Clone 12 cells assessed as reduction in kynurenine production incubated for 16 to 18 hrs. The test is classed as cell-based.
Indoleamine 2,3-dioxygenase 1 (Mus musculus, UniProt P28776), sequence (P28776 whole entry): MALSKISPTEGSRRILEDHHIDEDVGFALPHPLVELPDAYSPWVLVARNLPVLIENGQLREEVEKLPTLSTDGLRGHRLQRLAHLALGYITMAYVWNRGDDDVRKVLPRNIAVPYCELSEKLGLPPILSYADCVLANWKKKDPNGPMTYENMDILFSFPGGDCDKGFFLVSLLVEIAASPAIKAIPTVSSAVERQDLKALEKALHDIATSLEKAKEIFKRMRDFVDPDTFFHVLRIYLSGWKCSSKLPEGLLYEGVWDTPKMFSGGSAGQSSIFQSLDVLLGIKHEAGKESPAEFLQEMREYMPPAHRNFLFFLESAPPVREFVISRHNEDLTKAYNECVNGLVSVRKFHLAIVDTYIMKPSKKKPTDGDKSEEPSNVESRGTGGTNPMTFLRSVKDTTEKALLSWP

In the case of `Cc1ccc(-c2csc3nnc(SCC(=O)Nc4ccc5c(c4)OCO5)n23)cc1`, the results for the IC50 in test [1] and in [2] were over 250000 nM and over 62500 nM, respectively.

For `NS(=O)(=O)NC1(CCNc2nonc2/C(=N/O)Nc2ccc(F)c(Br)c2)CC1`, the results for the IC50 in test [3] and in test [4] were 3 nM and 18 nM, respectively.

On to `CS(=O)(=NC#N)NCCNc1nonc1/C(=N/O)Nc1ccc(F)c(Br)c1` (stereo unspecified), for which the values for the IC50 in test [5] and in [6] were 11 nM and 1.8 nM, respectively.

As to `O/N=C(/CCC1CCCCC1)Nc1cccc(Cl)c1`, the concentration for half-maximal inhibition (IC50) in test [7] was under 1000 nM.

Turning to `O[C@H](C[C@H]1c2c(F)cccc2-c2cncn21)[C@H]1CC[C@H](O)CC1` [NAVOXIMOD], the IC50 turned out to be 140 nM in [8] and 1500 nM in test [9].

`O=C1CC(c2c[nH]c3ccc(F)cc23)C(=O)N1` (stereo unspecified) [PF-06840003]: the IC50 in test [8] was over 50000 nM; in [10], 94 nM.
